Results published in patent US20200237705A1, “METHOD TO TREAT ANTIMICROBIAL RESISTANT CANDIDA” (Hennepin Life Sciences, LLC, priority 2017, published 2020).

Columns and labels:
C. auris = test: Killing of C. auris clinical isolates by GML alone in Todd Hewitt growth medium (plate counts); type: cell-based, Candida auris; conditions: two clinical isolates, 37° C., by 8 hours' incubation, limit of detection 10 CFUs/ml
Text: In a first study performed was to test the ability of GML alone to kill two recent clinical isolates of C. auris (FIG. 1). […] The lower limit of detection of Candida is 10 CFUs/ml for these studies.

[1] = test system: C. albicans, C. glabrata, C. krusei, C. parapsilosis, and C. pseudotropicalis; conditions: in vitro; Strandberg et al. 2010; cited from earlier work
Candida = conditions: women of menstrual age; Strandberg et al. 2010; cited from earlier work

Glycerol monolaurate [GML]
GML concentrations at which C. auris is killed (significant killing defined as ≥3 logs killing) (C. auris): ≥ 50 μg/ml
Ability to kill selected Candida species [1]: ability to kill selected Candida species
Numbers of Candida vaginally in women (Candida): can reduce the numbers of Candida vaginally
